Legend:
[1] = (§1) Clearance in human liver microsomes; type: ADME, Microsome; conditions: liver microsomes
[2] = biological target: Kappa-type opioid receptor (Homo sapiens, UniProt P41145); assay: Displacement of [3H]diprenorphine from human kappa opioid receptor expressed in CHO cells by liquid scintillation counting
[3] = biological target: T1, Delta-type opioid receptor (Homo sapiens, UniProt P41143); assay: Displacement of [3H]diprenorphine from human delta opioid receptor expressed in CHO cells by liquid scintillation counting
[4] = biological target: T1, Delta-type opioid receptor; assay: Antagonist activity at delta opioid receptor by GTPgammaS bunding assay; type: functional
[5] = biological target: Mu-type opioid receptor (Homo sapiens, UniProt P35372); assay: Displacement of [3H]diprenorphine from human mu opioid receptor expressed in CHO cells by liquid scintillation counting
[6] = test system: Liver microsomes; assay: as §1; type: ADME, Microsome; conditions: microsomes

T1 sequence (P41143 whole entry): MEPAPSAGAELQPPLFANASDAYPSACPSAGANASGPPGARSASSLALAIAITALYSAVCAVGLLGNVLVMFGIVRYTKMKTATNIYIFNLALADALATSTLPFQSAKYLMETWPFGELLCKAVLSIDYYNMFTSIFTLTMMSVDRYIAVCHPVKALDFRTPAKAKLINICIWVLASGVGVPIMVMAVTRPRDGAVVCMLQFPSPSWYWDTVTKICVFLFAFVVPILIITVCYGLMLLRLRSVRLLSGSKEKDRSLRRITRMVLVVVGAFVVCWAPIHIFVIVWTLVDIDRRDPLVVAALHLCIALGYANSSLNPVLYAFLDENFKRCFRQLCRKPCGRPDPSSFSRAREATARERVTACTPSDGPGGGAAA
Kappa-type opioid receptor, sequence (P41145 whole entry): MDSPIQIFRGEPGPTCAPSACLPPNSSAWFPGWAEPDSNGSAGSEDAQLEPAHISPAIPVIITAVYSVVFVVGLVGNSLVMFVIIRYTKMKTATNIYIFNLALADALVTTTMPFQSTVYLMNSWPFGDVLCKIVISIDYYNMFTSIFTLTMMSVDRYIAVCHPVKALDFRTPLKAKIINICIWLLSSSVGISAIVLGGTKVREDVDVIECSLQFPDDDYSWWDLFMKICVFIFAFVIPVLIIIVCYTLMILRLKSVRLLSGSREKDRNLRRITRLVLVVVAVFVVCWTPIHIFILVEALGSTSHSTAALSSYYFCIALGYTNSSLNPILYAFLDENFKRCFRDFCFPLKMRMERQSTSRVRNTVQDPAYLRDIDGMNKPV
Mu-type opioid receptor, sequence (P35372 whole entry): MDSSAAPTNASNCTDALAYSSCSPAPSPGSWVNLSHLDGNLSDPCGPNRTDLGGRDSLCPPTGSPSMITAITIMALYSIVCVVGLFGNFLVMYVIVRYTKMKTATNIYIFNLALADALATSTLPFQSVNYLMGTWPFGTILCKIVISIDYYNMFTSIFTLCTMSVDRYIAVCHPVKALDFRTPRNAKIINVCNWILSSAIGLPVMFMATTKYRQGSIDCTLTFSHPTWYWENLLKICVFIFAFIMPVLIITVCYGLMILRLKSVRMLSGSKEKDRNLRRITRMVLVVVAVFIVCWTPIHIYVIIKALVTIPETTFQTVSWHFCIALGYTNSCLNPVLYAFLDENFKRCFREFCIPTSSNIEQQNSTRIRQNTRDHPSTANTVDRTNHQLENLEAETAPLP

Compound: CCCCN1CCCC(c2ccc(C(=O)N(CC)CC)cc2)(c2cccc(O)c2)C1 (stereo not drawn)
- CLint scaled [1]: 113 mL/min/kg
- Ki [2]: > 0.89 µM
- Ki [3]: 0.0062 µM
- IC50 [4]: 0.055 µM
- Ki [5]: > 0.89 µM

Compound: CCN(C)C(=O)c1ccc(C2(c3cccc(O)c3)CCCN(CC3CC3)C2)cc1 (stereo not drawn)
- CLint scaled [1]: 70 mL/min/kg
- Ki [2]: 0.066 µM
- Ki [3]: 0.0022 µM
- Ki [5]: 0.052 µM

Compound: CCC(O)(CC)c1ccc(C2(c3cccc(C(N)=O)c3)CCN(CC3CC3)CC2)cc1
- CLint scaled [1]: 26.1 mL/min/kg
- Ki [2]: 0.079 µM
- Ki [3]: 0.0023 µM
- IC50 [4]: 0.282 µM
- Ki [5]: > 0.89 µM

Compound: CCCC(C)CN1CCC(c2ccc(C(O)(CC)CC)cc2)(c2cccc(C(N)=O)c2)CC1 (stereo not drawn)
- CLint scaled [1]: 108 mL/min/kg
- Ki [2]: 0.045 µM
- Ki [3]: 0.002 µM
- IC50 [4]: 0.0047 µM
- Ki [5]: 0.38 µM

Compound: CCN(CC)C(=O)c1ccc(C2(c3cccc(C(N)=O)c3)CCCN(Cc3nccs3)C2)cc1 (stereo not drawn)
- CL [6]: Not Active
- Ki [2]: > 0.89 µM
- Ki [3]: 0.007 µM
- IC50 [4]: 0.012 µM
- Ki [5]: > 0.89 µM

Compound: CC(C)(O)c1ccc(C2(c3cccc(O)c3)CCCN(CC3CC3)C2)cc1 (stereo not drawn)
- CLint scaled [1]: 22 mL/min/kg
- Ki [2]: 0.041 µM
- Ki [3]: 0.039 µM
- Ki [5]: 0.11 µM

Compound: CCN(CC)C(=O)c1ccc(C2(c3cccc(O)c3)CCN(CC3CC3)CC2)cc1
- CLint scaled [1]: 62.9 mL/min/kg
- Ki [2]: 0.44 µM
- Ki [3]: 0.009 µM
- IC50 [4]: 0.155 µM
- Ki [5]: > 0.89 µM

Compound: CCN(CC)C(=O)c1ccc(C2(c3cccc(O)c3)CCN(CCc3ccccc3)CC2)cc1
- CLint scaled [1]: 239 mL/min/kg
- Ki [2]: 0.095 µM
- Ki [3]: 0.0009 µM
- Ki [5]: 0.0665 µM

Compound: CCCC(C)CN1CCC(c2ccc(C(=O)N(CC)CC)cc2)(c2cccc(O)c2)CC1 (stereo not drawn)
- CL [6]: Not Active
- Ki [2]: > 0.89 µM
- Ki [3]: 0.0018 µM
- Ki [5]: > 0.89 µM

Compound: CCN(CC)C(=O)c1ccc(C2(c3cccc(O)c3)CCCN(CC(F)(F)F)C2)cc1 (stereo not drawn)
- CLint scaled [1]: > 300 mL/min/kg
- Ki [2]: 0.024 µM
- Ki [3]: 0.0029 µM
- Ki [5]: > 0.89 µM

Compound: CCCC(C)CN1CCC(c2ccc(C(=O)N(C)C)cc2)(c2cccc(O)c2)CC1 (stereo not drawn)
- CLint scaled [1]: 80 mL/min/kg
- Ki [2]: 0.15 µM
- Ki [3]: 0.011 µM
- IC50 [4]: 0.072 µM
- Ki [5]: > 0.89 µM

Compound: CCN(CC)C(=O)c1ccc(C2(c3cccc(O)c3)CCCN(CC3CC3)C2)cc1 (stereo not drawn)
- CLint scaled [1]: 89 mL/min/kg
- Ki [2]: 0.024 µM
- Ki [3]: 0.0008 µM
- IC50 [4]: 0.0071 µM
- Ki [5]: 0.035 µM

Compound: CCN(CC)C(=O)c1ccc(C2(c3cccc(O)c3)CCCN(Cc3nccs3)C2)cc1 (stereo not drawn)
- CLint scaled [1]: > 300 mL/min/kg
- Ki [2]: 0.163 µM
- Ki [3]: 0.0035 µM
- IC50 [4]: 0.016 µM
- Ki [5]: > 0.89 µM

Compound: CCN(CC)C(=O)c1ccc(C2(c3cccc(O)c3)CCCN(Cc3ncc[nH]3)C2)cc1 (stereo not drawn)
- CLint scaled [1]: 230 mL/min/kg
- Ki [2]: > 0.89 µM
- Ki [3]: 0.0012 µM
- Ki [5]: > 0.89 µM

Compound: C=CCN1CCC(c2ccc(C(=O)N(CC)CC)cc2)(c2cccc(O)c2)CC1
- CLint scaled [1]: 34.6 mL/min/kg
- Ki [2]: 0.347 µM
- Ki [3]: 0.0019 µM
- Ki [5]: > 0.89 µM
